Laboratory results taken from patent publication US20190247376A1, “NICOTINIC ACETYLCHOLINE RECEPTOR AGONIST ATTENUATES ILC2-DEPENDENT AIRWAY HYPERREACTIVITY” (University of Southern California, priority 2016, published 2019).

Legend:
[1] = biological target: α7 subtype of nAChR (Homo sapiens, UniProt P36544); settings: cited from earlier work
[2] = system: Rag2 deficient mice; test: IL-33-induced ILC2-mediated AHR and airway inflammation in Rag2-deficient mice; assay type: in vivo, mouse
Procedure: FIGS. 3A-3H: α7nAChR agonist treatment ameliorates ILC2s mediated AHR. (FIG. 3A) Rag2-deficient mice were intranasally challenged with recombinant mouse IL-33 or PBS and also received α7nAChR agonist (125 μg) or PBS on days 1-3 according to scheme 3A. Measurement of lung function and analyses of bronchoalveolar lavage fluid (BALF) and lung histology followed on day 4. (FIGS. 3B-3C) Lung resistance and dynamic compliance. (FIG. 3D) Total number of cells and eosinophils in BALF. (FIG. 3E) Hematoxylin and eosin-stained lung sections (×200). Scale bars represent 50 μm. (FIG. 3F) Quantification of lung histopathology shown as number of inflammatory cells per 250 μm^2 and thickness of airway epithelium (μm). (FIG. 3G) Total number and frequency of lung ILC2s. (FIG. 3H) Percentage of IL-5^+ and IL-13^+ lung ILC2s determined by flow cytometry. Data are representative of at least four independent experiments and are presented as means±SEM (n=8; Student's test *, p<0.05; **, p<0.01; ***, p<0.001).
As reported previously^6-9,11,12,34,35, the IL-5 and IL-13 cytokines produced by activated ILC2s are essential for eosinophilic inflammation and AHR development. Applicants investigated whether the attenuated ILC2 function by α7nAChR stimulation in vitro could result in inhibition of ILC2-mediated AHR and allergic inflammation. Rag2 deficient mice (devoid of T and B cells) were given intranasal (i.n.) rm-IL-33, with or without α7nAChR agonist for three consecutive days (FIG. 3A). As IL-33 administration specifically induces ILC2s, thereby causing AHR, with this model Applicants can readily explore the effect of an α7nAChR agonist in ILC2-mediated AHR. One day after the last challenge, lung function was evaluated by direct measurements of lung resistance (RL) and dynamic compliance (Cdyn), as described in the materials and methods section. […] These findings concur with the reduction of AHR and eosinophil counts in BALF (FIGS. 3B-3D). Thus, α7nAChR agonist represses IL-5 and IL-13 production, eosinophil recruitment, and ILC2-dependent AHR.
(§1) Mice were intranasally (i.n.) administered carrier-free recombinant mouse IL-33 (BioLegend, San Diego Calif., 0.5 µg per mouse in 50 µL) with or without […] of α7nAChR agonist (kindly provided by Lin Chen) on three consecutive days. Mice were intranasally (i.n.) administered carrier-free recombinant mouse IL-25 (BioLegend, San Diego Calif., 5 µg per mouse in 50 µL) with or without […] of α7nAChR agonist on three consecutive days. For Alternaria alternata experiments, mice were i.n. administered Alternaria alternata (Greer Labs, Lenoir, N.C., 100 μg per mouse in 50 μL) with or without 125 µg α7nAChR agonist for four consecutive days. One day after the last challenge, mice were anesthetized using i.p. injection of ketamine (10 mg mL^−1) and xylazine (1 mg mL^−1). Measurements of airway resistance and dynamic compliance were conducted with the Fine Pointe RC System (Buxco Research Systems, Wilmington, N.C.), in which mice were mechanically ventilated using a modified version as previously described^36,67. Mice were sequentially challenged with aerosolized PBS (baseline), followed by increasing doses of methacholine. Maximum lung resistance (RL) and minimum compliance (Cdyn) values were recorded during a three-minute period after each methacholine challenge.
After measurements of AHR, the trachea was canulated and the lungs lavaged three times with 1 mL ice cold PBS to collect BALF cells as previously described^68. […]

[3] = system: Rag2−/− GC−/− mice; test: IL-33-induced AHR in Rag2−/− GC−/− mice after adoptive transfer of WT or α7nAChR-deficient ILC2s; assay type: in vivo, mouse; settings: IL-33, agonist 125 μg days 1-3
Procedure: FIGS. 4A-4E: α7nAChR expression is critical for GTS-21 action on ILC2s in vivo. BALB/cByJ and α7nAChR^−/− mice were intranasally challenged with rm-IL-33 or PBS, and also given α7nAChR agonist (125 μg) or PBS on days 1-3. Measurement of lung function and analysis of BAL followed on day 4. (FIG. 4A) Lung resistance. (FIG. 4B) Total number of eosinophils in BALF. (FIG. 4C) Rag^−/− GC^−/− mice were received ILC2s from either WT or α7nAChR^−/− mice. After the adoptive transfer, mice were intranasally challenged with rm-IL-33 or PBS; they also received α7nAChR agonist (125 μg) or PBS on days 1-3. Measurement of lung function and analysis of BAL followed on day 4, according to scheme 4C. (FIG. 4D) Lung resistance. (FIG. 4E) Total number of eosinophils in BALF. Data are representative of at least three independent experiments and are presented as means±SEM (n=4; Student's test ***, p<0.001, WT IL-33+α7nAChR agonist vs. α7nAChR^−/− IL-33+α7nAChR agonist).
Given that a variety of cells participate in allergic inflammation, Applicants wanted to investigate the effect of the agonist specifically on ILC2s. Rag2^−/− GC^−/− mice lack not only B and T cells, but NK cells and ILC2s as well. Using methods previously described by our laboratory^36, Applicants adoptively transferred WT or α7nAChR-deficient ILC2s into these Rag2^−/− GC^−/− mice, and then treated them with IL-33, with or without α7nAChR agonist. As expected, Applicants observed a decrease of AHR and of eosinophil recruitment in mice injected with WT ILC2s in response to α7nAChR treatment (FIGS. 4C-4E).
as §1, with “Mice were sequentially challenged with aerosolized PBS (baseline), followed by increasing doses of methacholine.” left out

[4] = i.n. rm-IL-33, agonist 125 μg days 1-3, day 4
[5] = i.n. rm-IL-33, agonist 125 μg days 1-3, measured day 4
[6] = i.n. rm-IL-33, agonist 125 μg days 1-3, vs untreated mice
[7] = Rag2−/− GC−/− mice injected with WT ILC2s
[8] = Rag2−/− GC−/− mice injected with α7nAChR-deficient ILC2s

Sequence of α7 subtype of nAChR (P36544 23-502): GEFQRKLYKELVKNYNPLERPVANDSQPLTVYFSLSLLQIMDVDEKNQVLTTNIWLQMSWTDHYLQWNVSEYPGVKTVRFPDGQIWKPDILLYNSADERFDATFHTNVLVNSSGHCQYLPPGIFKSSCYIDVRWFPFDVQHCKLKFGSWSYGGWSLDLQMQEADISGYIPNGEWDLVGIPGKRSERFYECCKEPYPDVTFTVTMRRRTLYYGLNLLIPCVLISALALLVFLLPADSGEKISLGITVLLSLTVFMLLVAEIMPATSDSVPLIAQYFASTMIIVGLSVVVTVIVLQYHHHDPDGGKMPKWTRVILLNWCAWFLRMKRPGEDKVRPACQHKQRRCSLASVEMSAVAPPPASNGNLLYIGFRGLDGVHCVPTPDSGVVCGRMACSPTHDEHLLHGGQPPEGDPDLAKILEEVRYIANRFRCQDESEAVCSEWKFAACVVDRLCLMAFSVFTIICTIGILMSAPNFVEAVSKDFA

COc1ccc(/C=C2\CCCN=C2c2cccnc2)c(OC)c1 [GTS-21, 3-[(3E)-3-[(2,4-dimethoxyphenyl)methylidene]-5,6-dihydro-4H-pyridin-2-yl]pyridine]
binding to the α7 subtype [1]: binds
absolute number of lung ILC2s [2, 4]: significantly suppressed
airway wall thickness (lung histology) [2, 4]: prevented
eosinophilic infiltration in BALF [2, 4]: decreased
frequency of lung ILC2s [2, 4]: significantly suppressed
infiltrated cells (lung histology) [2, 4]: prevented
total cell counts (TCC) in BALF [2, 4]: decreased
dynamic compliance (Cdyn) [2, 5]: significantly reduced
lung resistance (RL) [2, 5]: significantly reduced
IL-5 producing lung ILC2s (intracellular cytokine assay) [2, 6]: significantly decreased
IL-13 producing lung ILC2s (intracellular cytokine assay) [2, 6]: significantly decreased
AHR [3, 7]: decrease
eosinophil recruitment [3, 7]: decrease
AHR [3, 8]: affected neither AHR nor eosinophilia
eosinophilia [3, 8]: affected neither AHR nor eosinophilia
